Laboratory results as given in patent US7119076B2, “Preventives or remedies for endometriosis or uterine myoma” (priority 2000, dated 2006).

Test system: endometriosis model rats
Assay: Therapeutic effect in endometriosis model rats (autotransplanted uterine tissue on peritoneum), histology of lesion
Format: in vivo, Sprague-Dawley rats (female)
Settings: oral, lesion excised seven days after preparation; for invasion of mast cells in lesion sample: light and electron microscopy; for degree of interstitial proliferative lesion: versus control group
Procedure: Endometriosis model rats were prepared by the method described in Michael W. Vernon et al., FERTILITY AND STERILITY, Vol. 44, No. 5, Nov. 1985. That is, endometriosis model rats were prepared as follows: Sprague-Dawley rats (female) of 8 weeks old were acclimatized for 2 weeks under 12 hours light-dark condition. From each rat, right uterine horn was excised under general anesthesia with sevoflurane and ketamine hydrochloride, and a tissue piece sizing 5 mm×5 mm was prepared therefrom. The tissue piece was subjected to autotransplantation such that the endometrium surface is attached to peritoneum.
From 24 hours after the preparation of the endometriosis model rats, commercially available clarithromycin tablets (trademark “Clarith Tablet 50 for Children” prepared by Taisho Pharmaceutical Co., Ltd) were orally administered to the rats for 3 days. […] Clarithromycin was not administered to control animals. Seven days after the preparation of the model rats, at which the model lesion reached its peak, the peritoneum tissue including the graft up to the abdominal muscle was excised to obtain a lesion sample. From the thus obtained samples, light microscope specimens (hematoxylin-eosin staining, toluidine blue staining) and electron microscope specimens (uranium-lead double staining) were prepared, and the existence of invaded mast cells, which is a symptom of endometriosis, and the degree of interstitial proliferative lesion were observed.

[1] = 10 mg/kg per day for 3 days from 24 hours after model preparation
[2] = 6 mg/kg per day for 3 days from 24 hours after model preparation

SMILES | invasion of mast cells in lesion sample [1] | degree of interstitial proliferative lesion [1] | invasion of mast cells in lesion sample [2] | degree of interstitial proliferative lesion [2]
CC[C@H]1OC(=O)[C@H](C)[C@@H](O[C@H]2C[C@@](C)(OC)[C@@H](O)[C@H](C)O2)[C@H](C)[C@@H](O[C@@H]2O[C@H](C)C[C@H](N(C)C)[C@H]2O)[C@](C)(O)C[C@@H](C)CN(C)[C@H](C)[C@@H](O)[C@]1(C)O [azithromycin] | not observed | apparently reduced |  | 
CC[C@H]1OC(=O)[C@H](C)[C@@H](O[C@H]2C[C@@](C)(OC)[C@@H](O)[C@H](C)O2)[C@H](C)[C@@H](O[C@@H]2O[C@H](C)C[C@H](N(C)C)[C@H]2O)[C@](C)(OC)C[C@@H](C)C(=O)[C@H](C)[C@@H](O)[C@]1(C)O [clarithromycin] | not observed | apparently reduced |  | 
CC[C@H]1OC(=O)[C@H](C)[C@@H](O[C@H]2C[C@@](C)(OC)[C@@H](O)[C@H](C)O2)[C@H](C)[C@@H](O[C@@H]2O[C@H](C)C[C@H](N(C)C)[C@H]2O)[C@](C)(O)C[C@@H](C)/C(=N\OCOCCOC)[C@H](C)[C@@H](O)[C@]1(C)O [roxithromycin] |  |  | not observed | apparently reduced
